No end group written: not given here.
Assays:
Type in all cases: cell-based, human
[1] = system: PBLs (CD4+, CD8+, CD45RO+ T cells); experiment: FACS analysis of T cell phenotype during repeated stimulation with ImMucin (FIG. 2)
Text: (§1) Thawed PBLs underwent 1st stimulation with ImMucin pulsed Autologues DC at a ratio of 20:1 and cultured for 7 days in dedicated T cell Medium. T cell medium contained RPMI medium supplemented with 10% FCS, L-Glutamine, Sodium Pyruvate, MEM-EAGLE non-essential amino-acids, HEPES and Gentamycin Sulphate (Bet-Haemek Industries, IL) as well as with 50 IU/ml of recombinant IL-7 (Cytolab IL). For the second stimulation, PBL were transferred to adherent autologues ImMucin-pulsed PBMC and cultured for additional 5 days in T cell Medium. At the end of the 5 days, medium was partial replaced with fresh medium containing 1 ug/ml of ImMucin and 50 IU/ml IL-2 for a third stimulation of 48 h at 37° C. Following the last stimulation ImMucin T cell line was checked for immune activation properties.
For FACS analysis, PBLs were suspended at a final concentration of 20×10^6 and 50 µl were transfer into FACS tube (Falcon) in Blocker solution (PBS with 3% FCS and 0.1% Sodium Azide). 10 µl of fluorochrome-conjugate anti-CD4, anti-CD8, and anti-CD45RO (eBioscience) were added for 30 min on ice at 0° C. in the Dark. After the incubation cell were washed with 2 ml of the blocker solution and re suspended in 0.5 ml of Phosphate buffer saline (PBS). Samples were analyzed in a FACS-sort machine (BD) for positive florescence.
The ability of ImMucin to propagate a subpopulation of CD4^+ and CD8^+ T cells was further analyzed, and in particular the ability of ImMucin to transform naive CD4^+ and CD8^+ T cells into memory cells. This property was evaluated in a FACS analysis measuring the CD45RO^+ marker for memory T cells on CD4^+ and CD8^+ subpopulations (FIG. 2).

[2] = system: T-Cell specific subpopulation (Clones); experiment: ELISA of cytokine secretion by the T-cell specific subpopulation (clones) stimulated with peptides; conditions: two experiments, four donors
Text: as §1
Cytokine release was studied during the culture of stimulated T-cells. The evaluated samples were collected from the T cell culture medium on day 2, 3, and 5 and stored until use at −20° C.
[…] of the selected capture antibody (e.g. anti-Hu IFN-Gamma, or anti-Hu TNF-alfa or anti IL-2) were added to each well at the final concentration of 5 μg/ml in PBS. Plates were incubated for 2 h at R.T. or over night at 4° C. Next, […] of blocking solution were added for an incubation of 2 h at R.T. […] of evaluated samples were added in duplicate into 2 wells for 2 hours at RT. After 2 h of incubation at R.T plates were washed λ4 times in washing solution. In the next step, a Biotin-conjugated detection antibody (relevant to coated antibody) was added at a final concentration of 10 μg/ml in total volume of 100 μl for 1 h at R.T. Finally, 100 μl/well working dilution (1:10000 in Blocker solution) of Streptavidin-HRP were added to each well and incubated for 1 h at R.T.
Plates were washed λ6 times with PBS-Tween (0.4%) and 100 μl/well of TMB/E Solution (CHEMICON, Catalog #ES001) was added. The plates were then exposed until blue color appeared in the wells of the positive control and no color was detected in the blank wells. To stop the color reaction, 50 μl/well of 10% of Sulfuric acid was added. The plates were counted in ELISA-Reader using a 450 nm filter.
For that purpose, an enriched ImMucin-specific T cell subpopulation was produced via repeated stimulation with ImMucin. The specificity of the subpopulation for ImMucin, as well as to the other VXL epitopes, was examined using proliferation assays, cytokine release assays, FACS analysis in which the percentage and type of cells enriched during the enrichment process was analyzed, and using a CTL assay against selected target cells.
For producing the specific T cell subpopulation PBL were stimulated three times for 7, 5 and 2 days with ImMucin presented via DC and PBMC. Following the 3rd stimulation the cells were evaluated against the different VXL epitopes.

[3] = system: blood samples derived from naive donors; experiment: Summary: ImMucin specific activation in blood samples of naive donors; conditions: out of 14 different blood samples from naive donors
Text: In summary, out of 14 different blood samples derived from naive donors, in 12 ImMucin specific activation could be observed. It is therefore clear that ImMucin is able to induce antigen specific CD4^+ as well as CD8^+ T cell activation which can lead to effective anti-tumor vaccine properties including lysis, cytokine release and memory in the majority of the population.

Question: What does the source list for MTPGTQSPFFLLLLLTVLTVV [ImMucin]?
Answer: increase in percentage of memory CD45RO+ cells ([1]; ImMucin activation): two fold; percentage of CD8+ T cells ([1]; after repeated stimulation with ImMucin, from 15% before): 36%; percentage of CD4+ T cells ([1]; after repeated stimulation with ImMucin, from 43% before): 85%; IL-2 % of clones [2]: 83%; INF-gamma % of clones [2]: 90%; TNF-Alfa % of clones [2]: 90%; TNF-Alfa Range [2]: 2.7 to 8.9 ng/mL; blood samples in which ImMucin specific activation could be observed [3]: 12
